Experiments:
Assay type in all cases: in vivo
[1] = system: McIntosh apple; experiment: Thinning study of McIntosh apple (Michigan), Example 1; settings: in combination with 6-benzyladenine 28 g/acre; 100 ppm derivative vs 1000 ppm S-ABA
Description: In a study carried out in Michigan, 3'-methyl-(S)-abscisic acid was mixed with 6-benzyladenine and compared with a mixture of S-ABA and 6-benzyladenine. 3'-Methyl-(S)-abscisic acid was formulated as a potassium salt in an aqueous. S-ABA was formulated as potassium salt in an aqueous formulation. […]®, a 2% (w/w) 6-benzyladenine formulation, was used as the source of 6-benzyladenine (“6-BA” in the following tables). The treatments were applied to McIntosh apple in fields when the fruit reached 10 mm in size. Six single tree replicates were sprayed with the equivalent of 100 gallons per acre using a motorized backpack mist blower. All the trees in the study were matched to about the same size and initial cropload. The fruit was harvested at maturity and the average fruit weights for each treatment group were recorded. The results are shown in Table 1 (the lower the number of fruits, the greater the thinning effect of the treatment).

[2] = system: Gala apple; experiment: Thinning study of Gala apple (Michigan), Example 2; settings: in combination with 6-benzyladenine 28 g/acre
Description: In a study carried out in Michigan, 3'-methyl-(S)-abscisic acid was mixed with 6-benzyladenine and compared with a mixture of S-ABA and 6-benzyladenine. 3'-Methyl-(S)-abscisic acid was formulated as a potassium salt in an aqueous. S-ABA was formulated as potassium salt in an aqueous formulation. […]®, a 2% (w/w) 6-benzyladenine formulation, was used as the source of 6-benzyladenine (“6-BA” in the following tables). The treatments were applied to McIntosh apple in fields when the fruit reached 10 mm in size. Six single tree replicates were sprayed with the equivalent of 100 gallons per acre using a motorized backpack mist blower. All the trees in the study were matched to about the same size and initial cropload. The fruit was harvested at maturity and the average fruit weights for each treatment group were recorded. The results are shown in Table 1 (the lower the number of fruits, the greater the thinning effect of the treatment). A further study was carried out in Michigan, following the same protocol as described in Example 1.

[3] = system: Gala apple; experiment: Thinning study of Gala apple (Michigan), repeat, Example 3
Description: In a study carried out in Michigan, 3'-methyl-(S)-abscisic acid was mixed with 6-benzyladenine and compared with a mixture of S-ABA and 6-benzyladenine. 3'-Methyl-(S)-abscisic acid was formulated as a potassium salt in an aqueous. S-ABA was formulated as potassium salt in an aqueous formulation. […]®, a 2% (w/w) 6-benzyladenine formulation, was used as the source of 6-benzyladenine (“6-BA” in the following tables). The treatments were applied to McIntosh apple in fields when the fruit reached 10 mm in size. Six single tree replicates were sprayed with the equivalent of 100 gallons per acre using a motorized backpack mist blower. All the trees in the study were matched to about the same size and initial cropload. The fruit was harvested at maturity and the average fruit weights for each treatment group were recorded. The results are shown in Table 1 (the lower the number of fruits, the greater the thinning effect of the treatment). The thinning study of Gala apple was repeated in Gala in Michigan following the same protocol described in Example 1. In addition to S-ABA and 3'methyl-(S)-ABA, 3'-propargyl-(S)-ABA was also tested for this effect.

[4] = system: Gala apple; experiment: Thinning study of Gala apple (Washington), chemical thinning followed by hand thinning, Example 4; settings: in combination with 6-benzyladenine 28 g/acre; 300 ppm derivative vs 1000 ppm S-ABA
Experimental: Another thinning study of Gala apple was carried out in Washington using a procedure of chemical thinning followed by hand thinning. For chemical thinning, trees (size matched across all the treatment groups) were sprayed with 6-benzyladenine combined with S-ABA or S-ABA derivatives at about the 10 mm fruit diameter timing, as described in Example 1. After a period known as “June drop,” the trees were further thinned by hand to achieve the essentially identical fruit load that was deemed to be the appropriate crop load. This practice will ensure a uni-size apple crop. With this protocol, a lower requirement for the number of fruits removed by hand indicates a more efficacious chemical thinning treatment.

[5] = system: Rich Lady peach; experiment: Thinning study on Rich Lady peach (Yakima, Washington), Example 5; settings: for Effect on fruit size (percent fruit 125 count/box or larger), in words / Effect on hand thinning required / fruit drop, in words: 30-300 ppm 3′-methyl-(S)-abscisic acid, 300-1000 ppm S-ABA; for Harvest percent fruit 125 ct/box or larger / Number hand thinned per tree: 0.05% Regulaid surfactant; for Number hand thinned per tree: hand thinned after fruit drop period
Experimental: A study was conducted in Washington (Yakima, Wash.) to determine the effect of S-ABA and 3′-methyl-(S)-abscisic acid on Rich Lady peach thinning. In this study, the initial fruit set prior to treatment was relatively uniform across the treatment groups with the exception of the 300 ppm 3′-methyl-(S)-abscisic acid treatment that had lower fruit set. Following the treatments and a period of time for fruit to drop, the trees were hand-thinned to achieve a desired commercially optimal fruit load.

| Compound | Thinning potency relative to S-ABA [1] | Thinning potency relative to S-ABA (in words) [2] | Thinning potency relative to S-ABA (in words) ([3]; in combination with 6-benzyladenine 28 g/acre, 100 ppm derivative vs 300 ppm S-ABA) | Thinning potency relative to S-ABA (in words) [4] | Effect on fruit size (percent fruit 125 count/box or larger), in words [5] | Effect on hand thinning required / fruit drop, in words [5] | Harvest percent fruit 125 ct/box or larger ([5]; 30 ppm) [%] | Number hand thinned per tree ([5]; 30 ppm) [per tree] | Harvest percent fruit 125 ct/box or larger ([5]; 100 ppm) [%] | Number hand thinned per tree ([5]; 100 ppm) [per tree] | Harvest percent fruit 125 ct/box or larger ([5]; 300 ppm) [%] | Number hand thinned per tree ([5]; 300 ppm) [per tree] | Thinning effect, in words ([3]; in combination with 6-benzyladenine) | Harvest percent fruit 125 ct/box or larger ([5]; 1000 ppm) [%] | Number hand thinned per tree ([5]; 1000 ppm) [per tree] |
| --- | --- | --- | --- | --- | --- | --- | --- | --- | --- | --- | --- | --- | --- | --- | --- |
| CC1=C(C)[C@](O)(/C=C/C(C)=C\C(=O)O)C(C)(C)CC1=O [3′-methyl-(S)-ABA, (2Z,4E)-5-((S)-1-hydroxy-2,3,6,6-tetramethyl-4-oxocyclohex-2-en-1-yl)-3-methylpenta-2,4-dienoic acid] | about 10 times | more potent than S-ABA | about three times more potent than S-ABA | about three times more potent than S-ABA | increases with higher use rate | caused fruit drop (thinning) | 25.0 | 61.8 | 30.2 | 59.2 | 37.6 | 45.4 | – | – | – |
| C#CCC1=C(C)[C@](O)(/C=C/C(C)=C\C(=O)O)C(C)(C)CC1=O [3′-propargyl-(S)-ABA, (2Z,4E)-5-((S)-1-hydroxy-2,6,6-trimethyl-4-oxo-3-(prop-2-yn-1-yl)cyclohex-2-en-1-yl)-3-methylpenta-2,4-dienoic acid] | – | – | – | about three times more potent than S-ABA | – | – | – | – | – | – | – | – | caused significant thinning | – | – |
| CC1=CC(=O)CC(C)(C)[C@@]1(O)/C=C/C(C)=C/C(=O)O [S-ABA, (S)-abscisic acid] | – | – | – | – | small increase in the fruit size in a dose dependent manner | did not reduce the hand thinning required | – | – | – | – | 27.6 | 61.2 | – | 29.7 | 67.8 |
